Experimental findings from patent US11247985B2, “Phenyl indole allosteric inhibitors of P97 ATPase” (University of Pittsburgh—Of the Commonwealth System of …, priority 2015, dated 2022) are described below.

Each structure is given as a SMILES string.

The first test deals with p97 ATPase WT (Homo sapiens (Human), UniProt P55072). Nature of the test: p97 ADP-Glo assay. Type of test: biochemical. As to conditions: Table 3; read-out: ADPGlo IC50. From the text: ADP-Glo™ (Promega Corp.) is a bioluminescent, homogeneous assay that measures ADP formed from a biochemical reactions. Because of its high sensitivity, the assay is suitable for monitoring enzyme activities at very early substrate conversions requiring very low amount of enzymes.
Chain of p97 ATPase WT (P55072 whole entry): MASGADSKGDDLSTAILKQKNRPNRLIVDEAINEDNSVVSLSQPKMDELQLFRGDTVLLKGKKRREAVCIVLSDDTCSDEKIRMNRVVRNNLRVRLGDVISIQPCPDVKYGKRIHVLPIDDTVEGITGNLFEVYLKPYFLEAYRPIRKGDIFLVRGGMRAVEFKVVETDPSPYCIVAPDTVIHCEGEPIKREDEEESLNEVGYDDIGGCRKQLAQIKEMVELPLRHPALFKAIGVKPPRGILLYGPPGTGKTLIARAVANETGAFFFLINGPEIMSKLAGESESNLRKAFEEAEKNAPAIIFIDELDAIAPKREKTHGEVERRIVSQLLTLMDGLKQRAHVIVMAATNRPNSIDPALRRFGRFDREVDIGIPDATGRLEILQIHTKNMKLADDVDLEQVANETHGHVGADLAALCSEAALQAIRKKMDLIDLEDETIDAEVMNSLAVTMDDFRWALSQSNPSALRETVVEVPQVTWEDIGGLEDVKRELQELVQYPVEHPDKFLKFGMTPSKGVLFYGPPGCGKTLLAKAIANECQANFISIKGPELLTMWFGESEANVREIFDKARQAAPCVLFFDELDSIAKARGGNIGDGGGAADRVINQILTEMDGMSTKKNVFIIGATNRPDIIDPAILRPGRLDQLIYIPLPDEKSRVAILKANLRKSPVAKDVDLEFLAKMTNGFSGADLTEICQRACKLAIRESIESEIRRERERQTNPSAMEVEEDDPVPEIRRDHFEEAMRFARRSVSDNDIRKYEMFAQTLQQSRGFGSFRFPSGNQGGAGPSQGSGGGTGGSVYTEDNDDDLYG
The ADP-Glo assay can be conducted as described in Chou, T.-F.; Bulfer, S. L.; Weihl, C.
Background: In ADP-Glo the light output rises with the ADP produced.
For `Cc1c(-c2cccc(N3CCC(NC4CCN(C)CC4)CC3)c2)[nH]c2ccccc12`, the IC50 is 22000 nM. On the same count and under the same terms, the same measure for `CN1CCN(C2(CNC3CCN(c4cccc(-c5cc6cc(F)ccc6[nH]5)c4)CC3)CCC2)CC1`: 15 nM. Still for that read-out and setting: the same measure for `Fc1ccc2[nH]c(-c3cccc(N4CCC(NCCc5c[nH]c6ccccc56)CC4)c3)cc2c1`: 11000 nM; for `N#Cc1ccc2[nH]c(-c3cccc(N4CCC(NCc5ccccc5)CC4)c3)cc2c1`: 430 nM; for `CC(C)N1CCN(CCNC2CCN(c3cccc(-c4cc5cc(C#N)ccc5[nH]4)c3)CC2)CC1`: 26 nM. On the same count and under the same terms, the same measure for `CN1[C@@H]2CCC[C@H]1C[C@@H](NC1CCN(c3cccc(-c4cc5ccccc5[nH]4)c3)CC1)C2`: 1300 nM; for `Cn1ncnc1CCNC1CCN(c2cccc(-c3cc4cc(F)ccc4[nH]3)c2)CC1`: 1300 nM; for `CC(C)N1CCC(NC2CCN(c3nnc(-c4cc5cc(F)ccc5[nH]4)o3)CC2)CC1`: 15800 nM. Take `CN(C)CCNC1CCN(c2cccc(-c3cc4cc(F)ccc4[nH]3)c2)CC1`: the IC50 was 710 nM. The same measure, in the same setting: the same measure for `COC(=O)c1ccc2[nH]c(-c3cccc(N4CCC(NCCN5CCN(C(C)C)CC5)CC4)c3)cc2c1`: 150 nM; for `CC(C)N1CCN(CCNC2CCN(c3cccc(-c4cc5cc(F)c(F)cc5[nH]4)c3)CC2)CC1`: 330 nM. With `CC(C)N1CCN(CCNC(=O)C=C2CCN(c3cccc(-c4cc5ccccc5[nH]4)c3)CC2)CC1`, the IC50 was 7580 nM. Still for that read-out and setting: to `CC(C)N1CCN(CCC2CCN(c3cccc(-c4cc5ccccc5[nH]4)c3)CC2)CC1` belongs 6000 nM; to `c1cc(-c2cc3ccccc3[nH]2)cc(N2CCC(NCc3ccncc3)CC2)c1`, 1400 nM; to `CN1CCN(C2(CNC3CCN(c4cccc(-c5cc6cc(Cl)ccc6[nH]5)c4)CC3)CCC2)CC1`, 110 nM. On the same count and under the same terms, to `CC(C)N1CCN(CCNC2CCN(c3cncc(-c4cc5ccccc5[nH]4)c3)CC2)CC1` belongs 8000 nM; to `N#Cc1ccc2[nH]c(-c3cccc(N4CCC(NCc5cccc(N=[N+]=[N-])c5)CC4)c3)cc2c1`, 160 nM; to `Cc1ccc(N2CCC(NC3CCN(C)CC3)CC2)cc1-c1cc2ccccc2[nH]1`, 350 nM.

As for `CC(C)N1CCC(NC2CCN(c3cccc(-c4cc5cc(S(=O)(=O)NCc6ccccc6)ccc5[nH]4)c3)CC2)CC1`, the IC50 came to 7500 nM. Consider `c1ccc(CN2CCN(CCNC3CCN(c4cccc(-c5cc6ccccc6[nH]5)c4)CC3)CC2)cc1`, for which the IC50 is 300 nM.

For `FC1(F)CCN(CCNC2CCN(c3cccc(-c4cc5ccccc5[nH]4)c3)CC2)CC1`, the IC50 was found to be 2400 nM. On the same count and under the same terms, the same measure for `Cc1ccc2[nH]c(-c3cccc(N4CCC(NCCN5CCN(C(C)C)CC5)CC4)c3)cc2c1`: 200 nM.

With `Cc1c(-c2cc3ccccc3[nH]2)cccc1N1CCC(NC2CCN(C)CC2)CC1`, the IC50 came to 15000 nM. Regarding `CC(C)N1CCN(CCNC2CCN(c3cccc(-c4nc5ccccc5n4-c4ccc(C(c5ccccc5)c5ccccc5)cc4)c3)CC2)CC1`, the IC50 worked out at 7100 nM.

For `CC(C)N1CCN(CCNC2CCN(c3cccc(-c4cc5ccccc5s4)c3)CC2)CC1`, the IC50 came out at 24000 nM. Turning to `c1ccc(CCNC2CCN(c3cccc(-c4cc5ccccc5[nH]4)c3)CC2)cc1`, the IC50 was 2700 nM.

Regarding `Cc1ccc(N2CCC(NCCN3CCN(C(C)C)CC3)CC2)cc1-c1cc2ccccc2[nH]1`, the IC50 amounted to 140 nM.

Regarding `CNC(=O)c1ccc2[nH]c(-c3cccc(N4CCC(NCCN5CCN(C(C)C)CC5)CC4)c3)cc2c1`, the IC50 is 430 nM. The same measure, in the same setting: to `CC(C)(C)OC(=O)N1CCN(CCNC2CCN(c3cccc(-c4cc5ccccc5[nH]4)c3)CC2)CC1` belongs 2400 nM; to `c1cc(-c2cc3ccccc3[nH]2)cc(N2CCC(NCCN3CCCNCC3)CC2)c1`, 320 nM.

For `COC(=O)CCNC1CCN(c2cccc(-c3cc4cc(F)ccc4[nH]3)c2)CC1`, the IC50 is 1300 nM. Still for that read-out and setting: to `c1cc(-c2cc3ccccc3[nH]2)cc(N2CCC(NCCCN3CCOCC3)CC2)c1` belongs 800 nM; to `CC(C)N1CCN(C2(CNC3CCN(c4cccc(-c5cc6cc(C#N)ccc6[nH]5)c4)CC3)CCC2)CC1`, 15 nM; to `Cc1c(-c2cc3ccccc3[nH]2)cccc1N1CCC(NCCN2CCN(C(C)C)CC2)CC1`, 14000 nM. Take `[N-]=[N+]=Nc1ccc(NCCNC2CCN(c3cccc(-c4cc5ccccc5[nH]4)c3)CC2)cc1`: the IC50 is 5600 nM. Same read-out and setting: to `c1cc(-c2cc3ccccc3[nH]2)cc(N2CCC(NCCN3CCCC3)CC2)c1` belongs 880 nM; to `CC(C)N1CCN(CCNC2CCN(c3cccc(-c4cc5cc(S(F)(F)(F)(F)F)ccc5[nH]4)c3)CC2)CC1`, 21000 nM; to `Cc1ccc(N2CCC(NC3CCN(C(C)C)CC3)CC2)cc1-c1cc2cc(C#N)ccc2[nH]1`, 110 nM. For `CC(C)N1CCN(CCNC2CCN(c3cccc(-c4cc5cc(C(N)=O)ccc5[nH]4)c3)CC2)CC1`, the IC50 stood at 87 nM. The same measure, in the same setting: the same measure for `Cn1ncnc1CCNC1CCN(c2cccc(-c3cc4cc(C#N)ccc4[nH]3)c2)CC1`: 890 nM. Same read-out and setting: to `CC(C)N1CCN(CCNC2CCN(c3cccc(-c4cc5ccccc5o4)c3)CC2)CC1` belongs 20000 nM; to `c1ccc(CNC2CCN(c3cccc(-c4cc5ccccc5[nH]4)c3)CC2)nc1`, 1000 nM. As for `CCN1CCN(CCNC2CCN(c3cccc(-c4cc5ccccc5[nH]4)c3)CC2)CC1`, the IC50 turned out to be 190 nM. In the case of `O=C(CCNC1CCN(c2cccc(-c3cc4cc(F)ccc4[nH]3)c2)CC1)N1CCCCC1`, the IC50 was found to be 1400 nM. The same measure, in the same setting: to `c1cc(-c2cc3ccccc3[nH]2)cc(N2CCC(NCCN3CCNCC3)CC2)c1` belongs 310 nM. As for `CC(C)N1CCC(NC2CCN(c3cccc(-c4cc5cc(S(=O)(=O)NC(C)(C)C)ccc5[nH]4)c3)CC2)CC1`, the IC50 amounted to 14000 nM. The same measure, in the same setting: the same measure for `Cn1ncnc1CCNC1CCN(c2cccc(-c3cc4ccccc4[nH]3)c2)CC1`: 810 nM; for `CC(C)N1CCN(CCNC2CCN(c3cccc(-c4cc5ccccc5[nH]4)c3)CC2)C(=O)C1`: 1900 nM. On to `CC(C)N1CCN(CCNC2CCN(c3cccc(-c4cc5ccc(C#N)cc5[nH]4)c3)CC2)CC1`, for which the IC50 amounted to 6100 nM.

On to `CC1CCN(CCNC2CCN(c3cccc(-c4cc5ccccc5[nH]4)c3)CC2)CC1`, for which the IC50 came out at 800 nM. As to `CCN(CC)C(=O)CCNC1CCN(c2cccc(-c3cc4cc(F)ccc4[nH]3)c2)CC1`, the IC50 came to 670 nM. The same measure, in the same setting: to `FC(F)(F)CN1CCN(CCNC2CCN(c3cccc(-c4cc5ccccc5[nH]4)c3)CC2)CC1` belongs 1300 nM; to `Cc1c(-c2cccc(N3CCC(NCCN4CCN(C(C)C)CC4)CC3)c2)[nH]c2ccccc12`, 12000 nM. In the case of `Cc1ncncc1NC(=O)c1cccc(N2CCC(NCCN3CCN(C(C)C)CC3)CC2)c1`, the IC50 is 23000 nM. Same read-out and setting: to `CN1CCN(C2CCN(c3cccc(-c4cc5ccccc5[nH]4)c3)CC2)CC1` belongs 13000 nM. Regarding `COC(=O)CCNC1CCN(c2cccc(-c3cc4ccccc4[nH]3)c2)CC1`, the IC50 stood at 1000 nM.

For the compound `Cc1ccc(N2CCC(NCCN3CCN(C(C)C)CC3)CC2)cc1-c1cc2cc(F)ccc2[nH]1`, the IC50 turned out to be 25 nM. On the same count and under the same terms, the same measure for `COC(=O)c1ccc2[nH]c(-c3cccc(N4CCC(NC5CCN(C(C)C)CC5)CC4)c3)cc2c1`: 510 nM. On the same count and under the same terms, the same measure for `CC(C)N1CCN(CCNC2CCN(c3cccc(-c4cc5cc(F)ccc5[nH]4)c3)CC2)CC1`: 27 nM; for `CN1CCN(C(=O)CCNC2CCN(c3cccc(-c4cc5cc(C#N)ccc5[nH]4)c3)CC2)CC1`: 320 nM; for `C[C@@H]1CN(CCNC2CCN(c3cccc(-c4cc5ccccc5[nH]4)c3)CC2)C[C@H](C)N1C`: 140 nM. Consider `CN(C)CCNC1CCN(c2cccc(-c3cc4ccccc4[nH]3)c2)CC1`, for which the IC50 worked out at 570 nM.

Regarding `CC(C)N1CCN(CCNC2CCN(c3cccc(-c4ccc5ccccc5c4)c3)CC2)CC1`, the IC50 stood at 5100 nM. On the same count and under the same terms, to `COc1ccc2[nH]c(-c3cccc(N4CCC(NCCN5CCN(C(C)C)CC5)CC4)c3)cc2c1` belongs 660 nM; to `CC(C)N1CCN(CCNC2CCN(c3cccc(-c4cc5cc(F)cnc5[nH]4)c3)CC2)CC1`, 5300 nM; to `CC(C)(C)N1CCN(CCNC2CCN(c3cccc(-c4cc5ccccc5[nH]4)c3)CC2)CC1`, 130 nM.

With `CC(C)N1CCN(CCNC2CCN(c3cccc(-c4cc5cc(Cl)ccc5[nH]4)c3)CC2)CC1`, the IC50 worked out at 120 nM. The same measure, in the same setting: the same measure for `COCCN1CCN(CCNC2CCN(c3cccc(-c4cc5ccccc5[nH]4)c3)CC2)CC1`: 300 nM. Turning to `CC(C)N1CCN(CC=C2CCN(c3cccc(-c4cc5ccccc5[nH]4)c3)CC2)CC1`, the IC50 was 5800 nM. As for `Cc1ccc(N2CCC(NC3CCN(C)CC3)CC2)cc1-c1cc2cc(F)ccc2[nH]1`, the IC50 worked out at 82 nM. With `CC(C)N1CCN(CCNC2CCN(c3cccc(-c4cc5cccc(F)c5[nH]4)c3)CC2)CC1`, the IC50 was found to be 3300 nM.

Take `CC(C)N1CCN(CCNC2CCN(c3cccc(NC(=O)OCc4ccccc4)c3)CC2)CC1`: the IC50 was 1700 nM. Same read-out and setting: to `CC(C)N1CCN(CCNC2CCN(c3cccc(-c4cc5cc(C(F)(F)F)ccc5[nH]4)c3)CC2)CC1` belongs 6000 nM; to `CC(C)N1CCN(C2(CNC3CCN(c4cccc(-c5cc6cc(F)ccc6[nH]5)c4)CC3)COC2)CC1`, 41 nM; to `CN1CCN(C(=O)CCNC2CCN(c3cccc(-c4cc5ccccc5[nH]4)c3)CC2)CC1`, 290 nM. As to `CC(C)N1CCN(CCNC2CCN(c3cccc(-c4[nH]c5ccc(F)cc5c4-c4c(-c5cccc(N6CCC(NCCN7CCN(C(C)C)CC7)CC6)c5)[nH]c5ccc(F)cc45)c3)CC2)CC1`, the IC50 is 9300 nM.

The test is the same for the next values; noted with them: p97 ADP-Glo assay, differ from Table 2; read-out: ADP-Glo IC50.
Regarding `CC(C)N1CCN(CCNC2CCN(c3cccc(-c4cc5cc([N+](=O)[O-])ccc5[nH]4)c3)CC2)CC1` [Compound 23, N-(2-(4-Isopropylpiperazin-1-yl)ethyl)-1-(3-(5-nitro-1H-indol-2-yl)phenyl)piperidin-4-amine], the IC50 turned out to be 40 ± 40 nM.

Staying with this test, now noted: p97 ADP-Glo assay; read-out: inhibitor of the AAA ATPase (potency in words).
`CC(C)N1CCN(CCNC2CCN(c3cccc(-c4cc5cc([N+](=O)[O-])ccc5[nH]4)c3)CC2)CC1` [Compound 23, N-(2-(4-Isopropylpiperazin-1-yl)ethyl)-1-(3-(5-nitro-1H-indol-2-yl)phenyl)piperidin-4-amine]: the IC50 was determined as 40 nM.
